Measurements reported in US11840686B2, “Modulation of prekallikrein (PKK) expression” (Ionis Pharmaceuticals, Inc., priority 2013, dated 2023).
Strand notation (5' to 3'): a small letter for the sugar, then the base; units joined by * are phosphorothioate-linked, units joined directly phosphodiester-linked; [ ] holds rarer units or linkages, { } end groups; capitals alone tell only the bases. e = 2'-O-(2-methoxyethyl) (MOE); [5mC] = 5-methylcytosine; d = 2'-deoxy (DNA)

Test system: human PKK mRNA
Test: Antisense inhibition of human PKK mRNA in HepaRG cells, 5,000 nM (Example 2)
Assay type: cell-based
Method in brief: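 Percent inhibition of PKK mRNA is relative to untreated control, with qRT-PCR (probe set RTS3454) values adjusted to total RNA by RIBOGREEN. Oligonucleotides, fully phosphorothioate 2′-MOE gapmers, were delivered at 5,000 nM by electroporation into 20,000 HepaRG cells/well for about 24 h.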

[1] = HepaRG cells, electroporation with 5,000 nM antisense oligonucleotide, approximately 24 hours, PKK mRNA by RT-PCR (RTS3454), relative to untreated control cells, Table 5 experiment
[2] = HepaRG cells, electroporation with 5,000 nM antisense oligonucleotide, approximately 24 hours, PKK mRNA by RT-PCR (RTS3454), relative to untreated control cells, Table 6 experiment
[3] = HepaRG cells, 5,000 nM antisense oligonucleotide, 5-10-5 gapmers, Table 16
[4] = HepaRG cells, 5,000 nM antisense oligonucleotide, 5-10-5 gapmers, Table 17
[5] = Table 9 experiment, HepaRG cells, 20,000 cells per well, electroporation with 5,000 nM antisense oligonucleotide, approx. 24 hours, PKK mRNA by RT-PCR (RTS3454), relative to untreated control cells
[6] = Table 10 experiment, HepaRG cells, 20,000 cells per well, electroporation with 5,000 nM antisense oligonucleotide, approx. 24 hours, PKK mRNA by RT-PCR (RTS3454), relative to untreated control cells
[7] = human PKK mRNA, HepaRG cells, 5-10-5 motif oligonucleotides targeting SEQ ID NO: 1 and 10
[8] = Table 7, HepaRG cells, electroporation with 5,000 nM antisense oligonucleotide, approx. 24 hours, PKK mRNA by RT-PCR (RTS3454), relative to untreated control cells
[9] = Table 13, human PKK mRNA in HepaRG cells, 5-10-5 gapmers
[10] = Table 8, HepaRG cells, electroporation with 5,000 nM antisense oligonucleotide, approx. 24 hours, PKK mRNA by RT-PCR (RTS3454), relative to untreated control cells

546147 (eT*e[5mC]*eA*eT*eA*dG*dA*dG*dT*dT*dG*dA*dG*dT*d[5mC]*eA*eG*eA*e[5mC]*eA; antisense) [compound 546147]
% inhibition [1]: 76%

547327 (antisense eT*eT*eG*eA*eT*dG*dA*d[5mC]*d[5mC]*dA*d[5mC]*dA*dT*dT*dG*e[5mC]*eT*eT*e[5mC]*eA) [compound 547327]
% inhibition [2]: 45%

546946 (eA*e[5mC]*eT*e[5mC]*e[5mC]*d[5mC]*dA*dT*d[5mC]*dT*dA*d[5mC]*dT*d[5mC]*d[5mC]*e[5mC]*e[5mC]*e[5mC]*eA*eT; antisense) [compound 546946]
% inhibition [3]: 41%

547049 (e[5mC]*eA*e[5mC]*eT*eT*d[5mC]*d[5mC]*d[5mC]*dA*dG*d[5mC]*dA*dA*d[5mC]*d[5mC]*e[5mC]*eT*e[5mC]*eA*e[5mC]; antisense) [compound 547049]
% inhibition [4]: 20%

547011 (eG*eG*e[5mC]*eA*eG*dG*dA*dT*dT*dG*dG*dT*dG*dG*dT*eG*eG*eA*eA*eT; antisense) [compound 547011]
% inhibition [4]: 22%

547309 (antisense e[5mC]*eT*eT*eT*e[5mC]*dA*dA*dG*dA*dA*dG*d[5mC]*dA*dA*d[5mC]*e[5mC]*eA*eA*eA*e[5mC]) [compound 547309]
% inhibition [1]: 71%

546331 (antisense eT*eT*e[5mC]*eA*e[5mC]*d[5mC]*dT*dT*dT*d[5mC]*dT*d[5mC]*d[5mC]*dT*dT*e[5mC]*eG*eA*eG*eA) [compound 546331]
% inhibition [5]: 59%
% inhibition [6]: 44%

546899 (e[5mC]*eT*eA*e[5mC]*e[5mC]*dT*dA*dT*dA*dA*d[5mC]*dT*d[5mC]*dT*dA*eA*e[5mC]*eA*eG*eT; antisense) [compound 546899]
% inhibition [7]: 27%

546975 (eG*eG*e[5mC]*e[5mC]*eT*dG*dG*dA*dT*dA*d[5mC]*dA*dG*d[5mC]*d[5mC]*eT*eT*eT*e[5mC]*eT; antisense) [compound 546975]
% inhibition [3]: 70%

546243 (eA*eG*eA*eA*eT*dG*dG*d[5mC]*dA*dG*dG*dG*dT*dT*d[5mC]*eA*eG*eG*eT*eA; antisense) [compound 546243]
% inhibition [8]: 16%

546339 (antisense e[5mC]*eT*eT*eG*eA*dT*dA*dT*d[5mC]*dT*dT*dT*dT*d[5mC]*dT*eG*eG*e[5mC]*eA*eT) [compound 546339]
% inhibition [5]: 65%
% inhibition [6]: 64%

547322 (antisense e[5mC]*eT*eT*e[5mC]*eA*dA*dG*dG*dA*dA*dT*dG*dT*d[5mC]*d[5mC]*eA*eG*eA*eA*eA) [compound 547322]
% inhibition [2]: 65%

547686 (antisense e[5mC]*eT*eG*eT*e[5mC]*d[5mC]*dT*dA*dT*dA*dA*d[5mC]*dT*dA*dT*eA*eT*e[5mC]*eA*e[5mC]) [compound 547686]
% inhibition [3]: 36%

547689 (antisense eG*eT*eA*eA*e[5mC]*dA*dA*dT*dA*dT*d[5mC]*dA*d[5mC]*dT*dG*eT*e[5mC]*e[5mC]*eT*eA) [compound 547689]
% inhibition [3]: 73%

547484 (antisense e[5mC]*eT*eA*eA*eG*dG*dG*dA*d[5mC]*d[5mC]*dA*d[5mC]*d[5mC]*dT*dG*eA*eA*eT*e[5mC]*eT) [compound 547484]
% inhibition [5]: 69%
% inhibition [6]: 64%

546979 (eA*e[5mC]*eT*eG*eT*dT*dG*dT*d[5mC]*d[5mC]*dA*dT*dA*dG*d[5mC]*eA*eG*e[5mC]*eA*eT; antisense) [compound 546979]
% inhibition [3]: 71%

546324 (antisense eG*eG*eT*eA*eT*dA*dA*dA*dT*dT*dG*dT*dG*d[5mC]*dT*eT*eG*eT*eG*eT) [compound 546324]
% inhibition [5]: 73%
% inhibition [6]: 82%

547388 (eT*eA*eT*eG*eG*dT*dG*dT*dT*dT*dT*d[5mC]*dT*dT*dG*eA*eG*eG*eA*eG; antisense) [compound 547388]
% inhibition [8]: 55%

547286 (antisense eA*eG*eA*e[5mC]*eA*dT*d[5mC]*d[5mC]*dA*d[5mC]*dA*dG*dG*dA*dA*eA*e[5mC]*eT*eG*eT) [compound 547286]
% inhibition [1]: 68%

547669 (eA*e[5mC]*eA*eA*e[5mC]*dT*dA*dT*dA*dA*d[5mC]*dA*dG*dT*dA*eT*e[5mC]*eA*e[5mC]*eT; antisense) [compound 547669]
% inhibition [7]: 0%

546732 (eG*eG*eA*eT*eT*dT*dG*dG*d[5mC]*d[5mC]*d[5mC]*dT*dG*dA*dG*e[5mC]*e[5mC]*e[5mC]*e[5mC]*eA; antisense) [compound 546732]
% inhibition [9]: 14%

547452 (antisense eG*eT*eT*eT*eT*dG*dG*dT*dG*dA*dA*dT*dA*dA*dT*eA*eA*eT*e[5mC]*eT) [compound 547452]
% inhibition [5]: 47%
% inhibition [6]: 62%

547422 (eA*e[5mC]*e[5mC]*eA*eT*d[5mC]*d[5mC]*dA*dT*dA*dG*dA*dT*dA*dA*eT*e[5mC]*eT*eT*eA; antisense) [compound 547422]
% inhibition [10]: 70%

547529 (antisense eA*e[5mC]*eA*e[5mC]*eA*d[5mC]*dA*dG*dT*d[5mC]*dA*dT*dG*dG*dA*eG*eA*eT*e[5mC]*eT) [compound 547529]
% inhibition (HepaRG cells, electroporation, 5,000 nM antisense oligonucleotide, approx. 24 hours, primer probe set RTS3454, relative to untreated control cells, Table 12): 49%

548773 (antisense e[5mC]*eT*eA*eT*dA*dA*d[5mC]*dA*dG*dT*dA*dT*d[5mC]*eA*e[5mC]*eT*eG) [compound 548773]
% inhibition (human PKK mRNA, HepaRG cells, 5,000 nM antisense oligonucleotide, Table 18): 0%

547576 (e[5mC]*eT*eA*eG*eT*dT*dT*d[5mC]*d[5mC]*dT*dA*dT*dA*dA*d[5mC]*eT*eG*e[5mC]*eT*eG; antisense) [compound 547576]
% inhibition [9]: 29%

548715 (DNA eA*eT*e[5mC]*dA*d[5mC]*dT*dG*dT*dA*d[5mC]*dT*dA*dG*eT*eT*eT; antisense) [compound 548715]
% inhibition (HepaRG cells, 5,000 nM antisense oligonucleotide, human PKK mRNA, Table 18): 0%

547625 (antisense e[5mC]*eA*eG*eT*eA*dT*d[5mC]*dA*d[5mC]*dT*dG*dT*d[5mC]*d[5mC]*dT*eA*eT*eG*eT*e[5mC]) [compound 547625]
% inhibition [7]: 79%

547382 (e[5mC]*eT*eT*eT*eG*dT*dG*dA*d[5mC]*dT*d[5mC]*dG*dA*dT*dT*eT*eT*e[5mC]*e[5mC]*eA; antisense) [compound 547382]
% inhibition [8]: 62%

547589 (eT*eA*eA*e[5mC]*eT*dA*dT*dA*dA*d[5mC]*dA*dG*dT*dA*dT*e[5mC]*eA*e[5mC]*eT*eG; antisense) [compound 547589]
% inhibition (human PKK mRNA in HepaRG cells, 5-10-5 gapmers, Table 14): 36%

547436 (antisense e[5mC]*eT*e[5mC]*e[5mC]*e[5mC]*d[5mC]*dA*dA*dG*dA*dA*dG*dA*dG*dT*eT*eT*eG*eT*eT) [compound 547436]
% inhibition [10]: 0%

547292 (antisense eT*eA*e[5mC]*eA*eT*dG*dG*dA*dA*dG*d[5mC]*dT*dA*d[5mC]*dA*eT*e[5mC]*e[5mC]*e[5mC]*e[5mC]) [compound 547292]
% inhibition [1]: 60%

547274 (antisense eG*eA*eG*eG*eT*dG*dA*dG*dT*d[5mC]*dT*d[5mC]*dT*dT*dG*eT*e[5mC]*eA*e[5mC]*eT) [compound 547274]
% inhibition [1]: 70%

546892 (eA*e[5mC]*eT*eG*eT*d[5mC]*d[5mC]*dT*dA*dT*dG*dT*d[5mC]*dA*d[5mC]*eT*eG*eT*eA*e[5mC]; antisense) [compound 546892]
% inhibition [7]: 82%

547379 (e[5mC]*eT*e[5mC]*eG*eA*dT*dT*dT*dT*d[5mC]*d[5mC]*dA*dT*dA*d[5mC]*eA*eT*eT*eT*eG; antisense) [compound 547379]
% inhibition [8]: 37%
